Results reported in patent publication US11116757B2 (priority 2015, dated 2021).

Molecular target: DCN1-UBC12 interaction (Homo sapiens (Human), UniProt Q96GG9)
Experiment: biochemical
Format: binding
Conditions: TR-FRET IC50

Sequence of DCN1-UBC12 interaction (Q96GG9 60-248 limits assumed): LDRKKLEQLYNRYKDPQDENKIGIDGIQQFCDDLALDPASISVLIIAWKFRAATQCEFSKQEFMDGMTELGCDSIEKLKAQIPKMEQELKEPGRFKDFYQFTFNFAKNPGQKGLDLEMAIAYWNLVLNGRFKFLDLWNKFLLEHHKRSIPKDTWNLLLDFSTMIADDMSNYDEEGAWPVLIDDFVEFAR

Compound	IC50 [µM]
CCCC(C)N1CCC(N(Cc2ccccc2)C(=O)Nc2ccc(C(C)(C)C)cc2)CC1 (centres unmarked) [A100]	1.41
CCCC(C)N1CCC(N(Cc2ccccc2)C(=O)Nc2ccc(C(F)(F)F)nc2C)CC1 (centres unmarked) [A178]	15.8

Same assay, conditions: Table 4, commercial compounds; read-out: TR-FRET IC50

Compound	IC50 [µM]
COc1ccc(C(=O)N2CCC(C(=O)Nc3cccc([N+](=O)[O-])c3)CC2)c2ccccc12 [C60]	> 67.6
O=C(Nc1ccc(C(F)(F)F)cc1)N1CCN(C/C=C/c2ccccc2)CC1 [C13]	> 66.3
CC(=O)Nc1ccc(NC(=O)C2CCN(C(=O)c3cccs3)CC2)cc1 [C35]	> 67.6
COc1cccc(NC(=O)C2CCN(C(=O)c3ccc(OC)c4ccccc34)CC2)c1 [C59]	> 67.6
COc1ccc(C(=O)N2CCC(C(=O)Nc3ccccc3C)CC2)c2ccccc12 [C62]	> 67.6
COc1ccc(C(=O)NC2CCN(C(=O)c3ccc(OC)cc3)CC2)cc1 [C71]	> 92.2

Same assay, conditions: Table 6, commercial compounds; read-out: TR-FRET IC50

Compound	IC50 [µM]
CCN1CCN(C(=O)c2cnn(-c3ncc(C)c(-c4cccs4)n3)c2COC)CC1 [E20]	48.2
CCN1CCN(C(=O)c2cnn(-c3nccc(-c4cccs4)n3)c2C2CC2)CC1 [E14]	29.9
CN(C)CC(C)(C)CNC(=O)c1cnn(-c2nccc(-c3cccs3)n2)c1C1CC1 [E37]	> 67.6
CCN(CC)CCN(CC)C(=O)c1cnn(-c2nccc(-c3cccs3)n2)c1C [E3]	7.77
C=CCNC(=O)c1cnn(-c2ncc(C)c(-c3cccs3)n2)c1C [E59]	> 67.6
CCN(CC)CCNC(=O)c1cnn(-c2nccc(-c3cccs3)n2)c1C [E54]	> 67.6
CCN(CC)C(=O)c1cnn(-c2nccc(-c3cccs3)n2)c1C [E25]	63
CCN(CC)CCN(C)C(=O)c1cnn(-c2nccc(-c3cccs3)n2)c1C(C)C [E15]	32.1

Same assay, conditions: Table 7, commercial compounds; read-out: TR-FRET IC50

Compound	IC50 [µM]
Cc1cccc(C2c3c(C)nn(C)c3NC(=O)C2NC(=O)c2ccccc2)c1 (centres unmarked) [F33]	> 80.3
COc1ccc(C(=O)NC2C(=O)Nc3c(c(C)nn3C)C2c2ccc(Cl)c(Cl)c2)cc1OC (centres unmarked) [F30]	> 67.6
CCOc1ccc(C2c3c(C)nn(C)c3NC(=O)C2NC(=O)c2cccc(C)c2)cc1 (centres unmarked) [F23]	> 67.6
COc1ccc(C2c3c(C)nn(C)c3NC(=O)C2NC(=O)c2ccccc2)cc1OC (centres unmarked) [F29]	> 67.6

Same assay, conditions: read-out: TR-FRET IC50

Compound	IC50 [µM]
O=C(NC1CCN(Cc2ccccc2)CC1)NC1CCC2(CC1)OCCO2 [B26]	> 165
C#CCCCN1CCC(N(Cc2ccccc2NC(=O)CC)C(=O)Nc2ccc(Cl)c(Cl)c2)CC1 [A199]	> 14.5
CN(C)c1ncncc1NC(=O)NC1CCN(Cc2ccc(F)cc2)CC1 [B109]	> 72.8
CCCC(C)N1CCC(N(Cc2ccccc2)C(=O)Nc2cc(C(F)(F)F)ccc2F)CC1 (centres unmarked) [A154]	6.51
CCCN1CCC(NC(=O)Nc2ccc(Cl)cc2Cl)CC1 [B14]	43
CCCC(C)N1CCC(N(Cc2ccccc2)C(=O)Nc2cccc(OC(F)(F)F)c2)CC1 (centres unmarked) [A12]	0.0827
O=C(Nc1cc(F)cc(C(F)(F)F)c1)N(Cc1ccccc1)C1CCN(Cc2ccc[nH]2)CC1 [A215]	> 23.4
CCCCN1C(C)(C)CC(N(Cc2ccccc2)C(=O)Nc2cccc(C(F)(F)F)c2)CC1(C)C [A188]	34.3
CC(c1cccc(O)c1)N1CCC(N(Cc2ccccc2)C(=O)Nc2cc(F)cc(C(F)(F)F)c2)CC1 (centres unmarked) [A218]	> 24
CCCC(C)N1CCC(N(Cc2ccccc2)C(=O)Nc2ccc3cn[nH]c3c2)CC1 (centres unmarked) [A108]	2.11
CCN1CCC(N(Cc2ccco2)C(=O)Nc2ccc(C)c(F)c2)CC1 [B11]	23.8
C=CS(=O)(=O)Nc1cccc(CN(C(=O)Nc2cccc(C(F)(F)F)c2)C2CCN(C(C)CCC)CC2)c1 (centres unmarked) [drawing 844]	0.165
O=C(Nc1cc(F)cc(C(F)(F)F)c1)N(Cc1ccccc1)C1CCN(Cc2cccc(N3CCCC3)c2)CC1 [A202]	> 19.4
C=CS(=O)(=O)NCc1cccc(CN(C(=O)Nc2cccc(C(F)(F)F)c2)C2CCN(C(C)CCC)CC2)c1 (centres unmarked) [A1]	0.0043
1-Benzyl-1-(1-(3,3-Dimethylbutyl)Piperidin-4-yl)-3-(3-(Trifluoromethyl)Phenyl)Urea [A298]	> 85
CCCCN1CCC(N(Cc2ccccc2)C(=O)Nc2cccc([N+](=O)[O-])c2)CC1 [A104]	1.85
CCCC(C)N1CCC(N(Cc2ccccc2)C(=O)Nc2ccc(Br)cc2Cl)CC1 (centres unmarked) [A111]	2.24
CCCC(C)N1CCC(N(Cc2ccccc2)C(=O)Nc2cccc(OC)c2)CC1 (centres unmarked) [A131]	3.15
CCCC(C)N1CCC(N(Cc2ccccc2)C(=O)Nc2cc(F)cc(S(F)(F)(F)(F)F)c2)CC1 (centres unmarked) [A48]	0.26
CCCN1CCC(N(CC(C)C)C(=O)Nc2cccc(C(F)(F)F)c2)CC1 [A146, 1-Isobutyl-1-(1-Propylpiperidin-4-yl)-3-(3-(Trifluoromethyl)Phenyl)Urea]	4.81
C#CCCCN1CCC(N(Cc2ccccc2NC(=O)C=C)C(=O)Nc2ccc(Cl)c(Cl)c2)CC1 [A304]	> 9.74

Compound	IC50 [µM]
C#CCCCN1CCC(N(Cc2ccccc2NC(=O)/C=C/C)C(=O)Nc2cccc(C(F)(F)F)c2)CC1 [A195]	> 100
O=C(Nc1cccc(C(F)(F)F)c1)NC1CCN(Cc2ccc(Cl)cc2)CC1 [A186, 1-(1-(4-Chlorobenzyl)Piperidin-4-yl)-3-(3-(Trifluoromethyl)Phenyl)Urea]	33.4
CCCC(C)N1CCC(N(Cc2ccccc2CNC(=O)CCl)C(=O)Nc2cccc(C(F)(F)F)c2)CC1 (centres unmarked) [drawing 848]	0.154
Cc1cccc(CC(=O)NC2CCN(Cc3ccccc3)CC2)c1 [B21]	< 0.0041
CCCCN(C(=O)Nc1cccc(C(F)(F)F)c1)C1CCN(CCC)CC1 [A96, 1-Butyl-1-(1-Propylpiperidin-4-yl)-3-(3-(Trifluoromethyl)Phenyl)Urea]	1.33
O=C(Nc1cccnc1Cl)NC1CCN(C(=O)c2ccccc2F)CC1 [B30]	> 53.3
CC(C1CCC1)N1CCC(N(Cc2ccccc2)C(=O)Nc2cc(F)cc(C(F)(F)F)c2)CC1 (centres unmarked) [A118]	0.143
CCCC(C)N1CCC(N(Cc2ccccc2)C(=O)Nc2ccc(C(=O)OC)cc2I)CC1 (centres unmarked) [A190]	37.8
Cc1cccc(NC(=O)NC2CCN(C(=O)c3ccccc3)CC2)c1 [B111]	> 73.2
CC(CCN1CCC(N(Cc2ccccc2)C(=O)Nc2cc(F)cc(C(F)(F)F)c2)CC1)c1ccccc1 (centres unmarked) [A127]	2.23
CCCC(C)N1CCC(N(Cc2ccccc2)C(=O)Nc2ccc(Oc3ccccc3)c(C(F)(F)F)c2)CC1 (centres unmarked) [A75]	0.731
CCCC(C)N1CCC(N(Cc2cccc(NC(=O)CCl)c2)C(=O)Nc2cccc(C(F)(F)F)c2)CC1 (centres unmarked) [A17]	0.0951
CCCC(C)N1CCC(N(Cc2ccccc2)C(=O)Nc2cc(OC)cc(OC)c2)CC1 (centres unmarked) [A273]	> 68
Cn1cncc1CN1CCC(N(Cc2ccccc2)C(=O)Nc2cc(F)cc(C(F)(F)F)c2)CC1 [A221]	> 24.8
CC(c1ccccc1)N1CCC(N(Cc2ccccc2)C(=O)Nc2cc(F)cc(C(F)(F)F)c2)CC1 (centres unmarked) [A148]	4.98
CCCC(C)N1CCC(N(Cc2ccccc2)C(=O)Nc2ccccc2F)CC1 (centres unmarked) [A295]	> 81.1
CCCC(C)N1CCC(N(Cc2cccc(CNC(=O)CCl)c2)C(=O)Nc2cccc(C(F)(F)F)c2)CC1 (centres unmarked) [A256]	> 60.4
CCCC1CCC(N(Cc2ccccc2)C(=O)c2cccc(C(F)(F)F)c2)CC1 (centres unmarked) [A193]	< 0.0029
O=C(c1ccc(Br)cc1)N1CCCC(c2nc3ccccc3s2)C1 (centres unmarked) [D27]	> 67.6
CCCC(C)N1CCC(N(Cc2ccccc2)C(=O)Nc2cc(F)ccc2Cl)CC1 (centres unmarked) [A169]	11
COc1cc(C(=O)N2CCC(c3nc4ccccc4s3)CC2)cc(OC)c1OC [D2]	8.53

Compound	IC50 [µM]
O=C(c1ccccc1Cl)N1CCC(c2nc3ccccc3s2)CC1 [D6]	18.5
CCOc1ccccc1NC(=O)N(C(C)C)C1CCN(C(C)=O)CC1 [B67]	> 67.6
CCCC(C)N1CCC(N(Cc2ccccc2)C(=O)Nc2c(C(C)C)cccc2C(C)C)CC1 (centres unmarked) [A173]	13.1
CCCC(C)N1CCC(N(CCNC(=O)CCl)C(=O)Nc2cccc(C(F)(F)F)c2)CC1 (centres unmarked) [drawing 837]	> 60
CCCC(C)N1CCC(N(Cc2ccccc2)C(=O)Nc2cc(S(F)(F)(F)(F)F)ccc2F)CC1 (centres unmarked) [A107]	2.05
O=C(CN1CCN(c2ccccc2)CC1)Nc1cccc(C(F)(F)F)c1 [B37]	> 60.6
CCCCN(C(=O)Nc1ccc(Cl)c(Cl)c1)C1CCN(C(C)CCC)CC1 (centres unmarked) [A20]	0.116
CCCCN1CCC(N(Cc2ccccc2)C(=O)Nc2cc(C(F)(F)F)cc(C(F)(F)F)c2)CC1 [A274]	> 68.2
C=CC(=O)NCCN(C(=O)Nc1cccc(C(F)(F)F)c1)C1CCN(C(C)CCC)CC1 (centres unmarked) [drawing 835]	33.8
COc1cc(SC)ccc1C(=O)N1CCC(c2nc3ccccc3s2)CC1 [D21]	> 67.6
C#CCCCN1CCC(N(Cc2ccccc2NC(=O)CC)C(=O)Nc2cccc(C(F)(F)F)c2)CC1 [A198]	> 12.9
CCCC(C)N1CCC(N(Cc2ccccc2)C(=O)Nc2ccccc2CC)CC1 (centres unmarked) [A270]	> 67.3
O=C(Nc1cccc(C(F)(F)F)c1)NC1CCN(Cc2ccccc2Cl)CC1 [A292, 1-(1-(2-Chlorobenzyl)Piperidin-4-yl)-3-(3-(Trifluoromethyl)Phenyl)Urea]	> 77.3
CCCC(C)N1CCC(N(Cc2ccccc2)C(=O)Nc2ccc(C(F)(F)F)cc2)CC1 (centres unmarked) [A41]	0.237
Cc1ccc(CN(C(=O)Nc2ccccc2F)C2CCN(Cc3ccccc3)CC2)o1 [B94]	> 67.6
CCCC(C)N1CCC(N(Cc2ccccc2)C(=O)Nc2ccc(C(F)(F)F)cc2[NH2+][O-])CC1 (centres unmarked) [A174]	13.2
C#CCCCN1CCC(N(Cc2ccccc2NC(=O)CC)C(=O)Nc2ccc(Cl)c(Cl)c2)CC1 [A200]	> 15
CCCC(C)N1CCC(N(Cc2ccccc2)C(=O)Nc2ccc(C)cc2)CC1 (centres unmarked) [A50]	0.268
CCCN1CCC(N(CC2CCCCC2)C(=O)Nc2cccc(C(F)(F)F)c2)CC1 [A92, 1-(Cyclohexylmethyl)-1-(1-Propylpiperidin-4-yl)-3-(3-(Trifluoromethyl)Phenyl)Urea]	1.23
CCCC(C)N1CCC(N(Cc2cccnc2)C(=O)Nc2ccc(Cl)c(Cl)c2)CC1 (centres unmarked) [A16]	0.0905
CCCC(C)N1CCC(N(Cc2ccccc2)C(=O)Nc2ccc(F)c(S(F)(F)(F)(F)F)c2)CC1 (centres unmarked) [A54]	0.295
